Results from ChEMBL document CHEMBL5257080, “Optimization of physicochemical properties of pyrrolidine GPR40 AgoPAMs results in a differentiated profile with improved pharmacokinetics and reduced off-target activities” (Bioorg Med Chem, 2023).
Converted amounts (≈) assume the structure as drawn. The source made the active and inactive calls. No cut-off for these calls is given here.

What was measured:
[1] = target: Free fatty acid receptor 1 (Homo sapiens, UniProt O14842); experiment: Positive allosteric modulation of human GPR40 expressed in HEK293 cells assessed as cAMP accumulation; assay type: cell-based
Free fatty acid receptor 1, sequence (O14842 whole entry): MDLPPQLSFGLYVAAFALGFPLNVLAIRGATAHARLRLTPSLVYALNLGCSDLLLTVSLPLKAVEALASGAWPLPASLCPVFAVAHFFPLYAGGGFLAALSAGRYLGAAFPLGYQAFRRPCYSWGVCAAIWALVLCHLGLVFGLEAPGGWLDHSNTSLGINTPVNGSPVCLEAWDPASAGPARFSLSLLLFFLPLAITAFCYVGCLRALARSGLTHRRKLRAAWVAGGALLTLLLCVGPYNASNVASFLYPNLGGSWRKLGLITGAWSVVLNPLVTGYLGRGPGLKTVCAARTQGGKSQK

Rattus norvegicus [2] = experiment: Anti-hyperglycemic activity against Sprague-Dawley rat assessed as reduction in plasma glucose AUC at 0.3 mg/kg, po measured for 20 to 120 mins by OGTT analysis; assay type: functional, organism-based; details: time lower 20.0 min, time upper […]
Cytochrome P450 2B6 = target: T1, Cytochrome P450 2B6 (Homo sapiens, UniProt P20813); experiment: Inhibition of CYP2B6 in human liver microsomes; assay type: ADME, Microsome
T1 sequence (P20813 whole entry): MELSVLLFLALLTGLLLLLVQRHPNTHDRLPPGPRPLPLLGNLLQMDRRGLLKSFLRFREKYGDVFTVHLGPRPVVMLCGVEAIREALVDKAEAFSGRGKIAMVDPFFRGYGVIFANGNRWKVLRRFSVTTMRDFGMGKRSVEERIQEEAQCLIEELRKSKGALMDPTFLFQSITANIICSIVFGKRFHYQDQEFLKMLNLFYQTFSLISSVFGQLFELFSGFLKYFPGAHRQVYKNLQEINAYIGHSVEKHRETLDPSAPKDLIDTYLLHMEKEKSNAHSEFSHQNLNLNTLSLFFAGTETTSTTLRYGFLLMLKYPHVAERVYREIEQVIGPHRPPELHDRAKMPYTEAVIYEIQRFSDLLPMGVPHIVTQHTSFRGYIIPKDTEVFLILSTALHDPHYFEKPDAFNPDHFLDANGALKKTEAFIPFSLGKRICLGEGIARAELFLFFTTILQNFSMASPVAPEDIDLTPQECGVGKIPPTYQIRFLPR

Cytochrome P450 2C8 = target: T2, Cytochrome P450 2C8 (Homo sapiens, UniProt P10632); experiment: Inhibition of CYP2C8 in human liver microsomes; assay type: ADME, Microsome
T2 sequence (P10632 whole entry): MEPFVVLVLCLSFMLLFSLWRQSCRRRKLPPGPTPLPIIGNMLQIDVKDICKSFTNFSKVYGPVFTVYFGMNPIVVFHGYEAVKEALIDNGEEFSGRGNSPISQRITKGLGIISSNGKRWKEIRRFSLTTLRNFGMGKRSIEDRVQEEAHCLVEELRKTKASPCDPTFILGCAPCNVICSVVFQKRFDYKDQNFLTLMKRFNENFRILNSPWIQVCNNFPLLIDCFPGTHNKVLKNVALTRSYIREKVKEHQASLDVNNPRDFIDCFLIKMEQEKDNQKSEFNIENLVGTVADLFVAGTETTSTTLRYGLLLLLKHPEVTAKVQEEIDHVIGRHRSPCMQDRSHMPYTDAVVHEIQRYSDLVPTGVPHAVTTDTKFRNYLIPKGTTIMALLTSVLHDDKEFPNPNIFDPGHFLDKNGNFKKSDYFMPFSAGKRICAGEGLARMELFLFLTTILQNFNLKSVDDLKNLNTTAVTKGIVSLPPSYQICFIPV

Cytochrome P450 2C9 = Cytochrome P450 2C9 (Homo sapiens, UniProt P11712); experiment: Inhibition of CYP2C9 in human liver microsomes; assay type: ADME, Microsome
Cytochrome P450 2C9, sequence (P11712 whole entry): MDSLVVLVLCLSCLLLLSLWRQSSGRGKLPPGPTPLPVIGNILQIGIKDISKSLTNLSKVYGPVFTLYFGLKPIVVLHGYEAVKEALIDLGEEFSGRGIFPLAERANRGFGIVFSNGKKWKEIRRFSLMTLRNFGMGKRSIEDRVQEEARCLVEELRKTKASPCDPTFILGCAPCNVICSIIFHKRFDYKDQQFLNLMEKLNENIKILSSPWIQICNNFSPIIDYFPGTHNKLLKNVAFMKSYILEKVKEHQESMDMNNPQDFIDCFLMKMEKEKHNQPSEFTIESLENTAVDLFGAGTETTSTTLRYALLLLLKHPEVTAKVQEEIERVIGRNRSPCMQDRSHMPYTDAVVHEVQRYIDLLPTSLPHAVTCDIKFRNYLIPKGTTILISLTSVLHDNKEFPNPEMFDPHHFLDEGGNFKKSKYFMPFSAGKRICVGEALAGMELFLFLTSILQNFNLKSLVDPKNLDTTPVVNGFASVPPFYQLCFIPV

Cytochrome P450 2C19 = Cytochrome P450 2C19 (Homo sapiens, UniProt P33261); experiment: Inhibition of CYP2C19 in human liver microsomes; assay type: ADME, Microsome
Cytochrome P450 2C19, sequence (P33261 whole entry): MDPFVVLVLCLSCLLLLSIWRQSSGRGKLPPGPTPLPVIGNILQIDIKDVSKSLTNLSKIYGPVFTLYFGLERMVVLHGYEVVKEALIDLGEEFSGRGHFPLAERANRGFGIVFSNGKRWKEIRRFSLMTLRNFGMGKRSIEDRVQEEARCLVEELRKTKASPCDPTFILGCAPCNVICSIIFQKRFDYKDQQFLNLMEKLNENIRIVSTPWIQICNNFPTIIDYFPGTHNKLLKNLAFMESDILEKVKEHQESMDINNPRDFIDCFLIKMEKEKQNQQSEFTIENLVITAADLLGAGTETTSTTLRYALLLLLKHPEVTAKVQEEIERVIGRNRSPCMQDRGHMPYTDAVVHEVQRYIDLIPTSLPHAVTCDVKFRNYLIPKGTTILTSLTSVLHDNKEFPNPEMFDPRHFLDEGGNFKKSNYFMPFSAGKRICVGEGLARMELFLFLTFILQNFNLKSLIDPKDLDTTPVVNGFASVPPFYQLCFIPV

Cytochrome P450 2D6 = Cytochrome P450 2D6 (Homo sapiens, UniProt P10635); experiment: Inhibition of CYP2D6 in human liver microsomes; assay type: ADME, Microsome
Cytochrome P450 2D6, sequence (P10635 whole entry): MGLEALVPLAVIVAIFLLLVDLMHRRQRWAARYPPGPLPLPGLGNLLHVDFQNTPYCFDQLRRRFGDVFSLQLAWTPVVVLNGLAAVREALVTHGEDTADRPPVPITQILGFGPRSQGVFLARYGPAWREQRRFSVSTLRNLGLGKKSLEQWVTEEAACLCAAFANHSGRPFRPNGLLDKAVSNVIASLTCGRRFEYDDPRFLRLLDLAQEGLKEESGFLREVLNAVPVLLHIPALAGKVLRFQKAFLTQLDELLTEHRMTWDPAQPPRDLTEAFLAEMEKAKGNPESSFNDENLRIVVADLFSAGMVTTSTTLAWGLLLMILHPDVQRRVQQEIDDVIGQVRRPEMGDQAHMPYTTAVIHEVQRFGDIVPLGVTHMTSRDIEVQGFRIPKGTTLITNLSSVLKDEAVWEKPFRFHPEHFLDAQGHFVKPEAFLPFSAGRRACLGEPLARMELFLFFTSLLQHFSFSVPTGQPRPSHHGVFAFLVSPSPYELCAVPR

Cytochrome P450 3A4 = Cytochrome P450 3A4 (Homo sapiens, UniProt P08684); experiment: Inhibition of CYP3A4 in human liver microsomes; assay type: ADME, Microsome
Cytochrome P450 3A4, sequence (P08684 whole entry): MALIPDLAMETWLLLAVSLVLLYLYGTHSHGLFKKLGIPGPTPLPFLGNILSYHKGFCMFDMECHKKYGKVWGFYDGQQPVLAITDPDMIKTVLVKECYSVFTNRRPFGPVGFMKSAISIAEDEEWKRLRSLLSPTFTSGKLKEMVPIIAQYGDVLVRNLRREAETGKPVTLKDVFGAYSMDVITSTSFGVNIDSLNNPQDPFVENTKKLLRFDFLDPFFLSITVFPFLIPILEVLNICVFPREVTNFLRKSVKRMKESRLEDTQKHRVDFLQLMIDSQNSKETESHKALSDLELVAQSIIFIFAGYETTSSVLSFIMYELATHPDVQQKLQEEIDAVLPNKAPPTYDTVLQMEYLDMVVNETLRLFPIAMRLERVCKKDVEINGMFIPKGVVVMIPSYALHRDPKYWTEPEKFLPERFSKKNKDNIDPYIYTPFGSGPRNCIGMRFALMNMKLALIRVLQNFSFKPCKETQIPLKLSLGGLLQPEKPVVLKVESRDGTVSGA

[3] = Permeability of compound across apical to basolateral side in dog MDCK cells; assay type: ADME, cell-based, Canis lupus familiaris; details: read-out: permeability
[4] = Solubility in phosphate buffer at pH 6.5; assay type: physicochemical
[5] = Solubility of the compound in FaSSIF at pH 6.5; assay type: ADME
[6] = Solubility of the compound in FeSSIF at pH 6.5; assay type: ADME
[7] = Solubility of the compound in FeSSIF at pH 5; assay type: ADME
[8] = Tmax in rat at 40 mg/kg bid; assay type: ADME, organism-based; details: in vivo
[9] = Tmax in rat at 160 mg/kg bid; assay type: ADME, organism-based; details: in vivo
[10] = Tmax in rat at 400 mg/kg bid; assay type: ADME, organism-based; details: in vivo
[11] = Cmax in rat at 400 mg/kg bid; assay type: ADME, organism-based; design: dose 400 mg/kg; details: in vivo
[12] = Cmax in rat at 40 mg/kg bid; assay type: ADME, organism-based; design: dose 40 mg/kg; details: in vivo
[13] = Cmax in rat at 160 mg/kg bid; assay type: ADME, organism-based; design: dose 160 mg/kg; details: in vivo
[14] = AUC (0 to 24 hrs) in rat at 40 mg/kg bid; assay type: ADME, organism-based; design: dose 40 mg/kg; details: in vivo
[15] = AUC (0 to 24 hrs) in rat at 160 mg/kg bid; assay type: ADME, organism-based; design: dose 160 mg/kg; details: in vivo
[16] = AUC (0 to 24 hrs) in rat at 400 mg/kg bid; assay type: ADME, organism-based; design: dose 400 mg/kg; details: in vivo
[17] = AUC (0 to 24 hrs) in rat at 150 mg/kg, po bid; assay type: ADME, organism-based; design: dose 150 mg/kg, route po; details: in vivo
Rattus norvegicus [18] = experiment: Hyperglycemic activity in Sprague-Dawley rat assessed as effect on blood glucose level at 150 mg/kg, qd by glucometer; assay type: functional, organism-based
[19] = Toxicity in Sprague-Dawley rat assessed as effect on pancrease at AUC measured for 1 months; details: in vivo, 730 h
[20] = Toxicity in cynomolgus monkey assessed as effect on pancrease at 30 mg/kg, po measured for 1 months; assay type: organism-based, Macaca fascicularis; details: in vivo, 730 h
[21] = Toxicity in Sprague-Dawley rat assessed as effect on pancrease at 300 mg/kg, po measured for 1 months; assay type: organism-based; details: in vivo, 730 h
[22] = Toxicity in Sprague-Dawley rat assessed as decrease in islet number at 300 mg/kg, po measured for 1 months; assay type: organism-based; details: in vivo, 730 h
[23] = Toxicity in Sprague-Dawley rat assessed as decrease in islet size at 300 mg/kg, po measured for 1 months; assay type: organism-based; design: scale not given: the % may be the effect or the level left; details: in vivo, 730 h
[24] = Toxicity in Sprague-Dawley rat assessed as islet cell cytoplasmic alteration at 60 mg/kg, po measured for 1 months; assay type: organism-based; details: in vivo, 730 h
[25] = Toxicity in rat assessed as NOAEL by measuring AUC (0 to 24 hrs) measured for 28 days; details: in vivo, time 28 day

- EC50 [1]: 3.6 µM
- IC50 (Cytochrome P450 2B6): 8.1 µM
- IC50 (Cytochrome P450 2C8): 1.7 µM
- IC50 (Cytochrome P450 2C9): 14 µM
- IC50 (Cytochrome P450 2C19): 38 µM
- IC50 (Cytochrome P450 2D6): 40 µM
- IC50 (Cytochrome P450 3A4): 3.4 µM
- Papp A→B [3]: 14.2 ×10⁻⁶ cm/s
- solubility [4]: 1 µg/mL (≈ 1.85 µM)
- solubility [5]: 9 µg/mL (≈ 16.6 µM)
- solubility [6]: 59 µg/mL (≈ 109 µM)
- solubility [7]: 8 µg/mL (≈ 14.8 µM)
- Tmax [8]: 8 h
- Tmax [9]: 8 h
- Tmax [10]: 8 h
- Cmax [11]: 271 µM
- Cmax [12]: 64 µM
- Cmax [13]: 106 µM
- AUC [14]: 549 µM·h
- AUC [15]: 1100 µM·h
- AUC [16]: 3370 µM·h
- AUC [17]: 557 µM·h
SMILES: COc1cc(N2CC[C@@H](Oc3ccc(N4N=C(C(F)(F)F)[C@@H](C)[C@@H]4CC(=O)O)cc3)[C@H](C)C2)c(Cl)cn1
- Activity (Rattus norvegicus [2]): inactive
- Activity (Rattus norvegicus [18]): Active
- Activity [19]: Non-Toxic
- Activity [20]: Non-Toxic
- Activity [21]: Non-Toxic
- Activity [22]: Toxic
- Activity [23]: 50%
- Activity [24]: Toxic
- AUC at […] [25]: 404 µM·h
